# Literature values as cited in EP0467998B1, “PEPTIDES FROM RETINOBLASTOMA GENE PRODUCTS AND ANTIBODIES THERETO” (BAYLOR COLLEGE OF MEDICINE, priority 1989, dated 1990).
# Conditions: individual amino acid, Hopp and Woods (1981)
row,Compound,Hydrophilicity Value
1,NC(=O)C[C@H](N)C(=O)O [Asn],0.2
2,CSCC[C@H](N)C(=O)O [Met],-1.3
3,CC[C@H](C)[C@H](N)C(=O)O [Ile],-1.8
4,NCCCC[C@H](N)C(=O)O [Lys],3.0
5,N[C@@H](Cc1c[nH]cn1)C(=O)O [His],-0.5
6,NCC(=O)O [Gly],0.0
7,N[C@@H](CS)C(=O)O [Cys],-1.0
8,C[C@@H](O)[C@H](N)C(=O)O [Thr],-0.4
9,CC(C)[C@H](N)C(=O)O [Val],-1.5
10,N=C(N)NCCC[C@H](N)C(=O)O [Arg],3.0
11,N[C@@H](Cc1ccc(O)cc1)C(=O)O [Tyr],-2.3
12,N[C@@H](CC(=O)O)C(=O)O [Asp],3.0
13,C[C@H](N)C(=O)O [Ala],-0.5
14,N[C@@H](CCC(=O)O)C(=O)O [Glu],3.0
15,N[C@@H](CO)C(=O)O [Ser],0.3
16,N[C@@H](Cc1c[nH]c2ccccc12)C(=O)O [Trp],-3.4
17,O=C(O)[C@@H]1CCCN1 [Pro],0.0
18,N[C@@H](Cc1ccccc1)C(=O)O [Phe],-2.5
